Laboratory results taken from US10253002B2, “Compounds and methods of treating infections” (Neoculi Pty Ltd., priority 2013, dated 2019).
Values after ≈ are worked out from the molar mass of the structure shown. Values joined by “and” are separate entries in the source; they are usually repeats but may differ in a detail not shown here. Identical values can stand only once. Like-named read-outs stand apart in the source and are kept apart here.

What was measured:
[1] = system: MRSA; test: Broth microdilution MIC, Example 7 (NCL812 and analogues); type: cell-based, Staphylococcus aureus; details: for activity against MRSA among analogues: MIC testing, two MRSA strains; for MIC: Staphylococcus aureus; for MIC / MRSA: MRSA
Method in brief: (§1)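 CLSI broth microdilution against two MRSA and two VRE strains, tested in duplicate with a third run if results differed by more than one two-fold dilution.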

[2] = system: VRE; test: as above; type: cell-based, Enterococcus spp.; details: for MIC: Enterococcus; for MIC / VRE: VRE; for activity against VRE among analogues: MIC testing, two VRE strains
Method in brief: as §1

[3] = system: Escherichia coli; test: as above; type: cell-based; details: 24 hours; for MIC: Escherichia coli
[4] = system: Pseudomonas aeruginosa; test: as above; type: cell-based; details: for MIC: Pseudomonas aeruginosa, 24 h
[5] = Bioassay ranking of the analogues tested; details: M + R (MRSA and VRE combined)
[6] = 24 h, read-out: MIC (μg/ml) at 24 hours MRSA 1, MRSA 1, 24 hours
[7] = 24 h, read-out: MIC (μg/ml) at 24 hours MRSA 2, MRSA 2, 24 hours
[8] = bioassay ranking, read-out: MRSA
[9] = 24 h, read-out: MIC (μg/ml) at 24 hours VRE 1, VRE 1, 24 hours
[10] = 24 h, read-out: MIC (μg/ml) at 24 hours VRE 2, VRE 2, 24 hours
[11] = bioassay ranking, read-out: VRE
[12] = read-out: MIC (μg/ml) at 24 hours E. coli, E. coli
[13] = read-out: MIC (μg/ml) at 24 hours P. aeruginosa, P. aeruginosa, 24 hours
[14] = isolate MRSA 1, 24 hours, 1st and 2nd replicate rows
[15] = isolate MRSA 2, 24 hours, 1st and 2nd replicate rows
[16] = isolate VRE 1, 24 hours, 1st and 2nd replicate rows
[17] = isolate VRE 2, 24 hours, 1st and 2nd replicate rows
[18] = 24 hours, 1st and 2nd replicate rows
[19] = 24 h, read-out: MIC (μg/ml) at 24 hours, MRSA 1, MRSA 1, 24 hours, duplicate lines per compound
[20] = 24 h, read-out: MIC (μg/ml) at 24 hours, MRSA 2, MRSA 2, 24 hours, duplicate lines per compound
[21] = 24 h, read-out: MIC (μg/ml) at 24 hours, VRE 1, VRE 1, 24 hours, duplicate lines per compound
[22] = 24 h, read-out: MIC (μg/ml) at 24 hours, VRE 2, VRE 2, 24 hours, duplicate lines per compound
[23] = read-out: MIC (μg/ml) at 24 hours, E. coli, duplicate lines per compound
[24] = read-out: MIC (μg/ml) at 24 hours, P. aeruginosa, 24 hours, duplicate lines per compound

| Compound | activity against MRSA among analogues [1] | MIC [1, 8] [µg/mL] | MIC [2, 11] [µg/mL] | activity against VRE among analogues [2] | M + R [5] [µg/mL] | MRSA ([1]; bioassay ranking) [µg/mL] | VRE ([2]; bioassay ranking) [µg/mL] | also measured |
| --- | --- | --- | --- | --- | --- | --- | --- | --- |
| Cc1ccc(/C=N/Nc2cc(N/N=C/c3ccc(C)cc3)nc(N)n2)cc1 [NCL195, 4,6-bis(2-((E)-4-methylbenzylidene)hydrazinyl)pyrimidin-2-amine] | greatest activity | 2 (≈ 5.56 µM) | 3.5 (≈ 9.74 µM) | greatest activity | 2.75 | – | – | MIC (μg/ml) at 24 hours, MRSA 1 ([1]; MRSA 1, 24 hours): 2 µg/mL (≈ 5.56 µM); MIC (μg/ml) at 24 hours, MRSA 2 ([1]; MRSA 2, 24 hours): 2 µg/mL (≈ 5.56 µM); MIC [1, 6]: 2 µg/mL (≈ 5.56 µM); MIC [1, 7]: 2 µg/mL (≈ 5.56 µM); MIC [2, 9]: 4 µg/mL (≈ 11.1 µM); MIC [2, 10]: 2 µg/mL (≈ 5.56 µM); MIC (μg/ml) at 24 hours, VRE 2 ([2]; VRE 2, 24 hours): 4 µg/mL (≈ 11.1 µM); MIC [3, 12]: > 128 µg/mL; MIC [4, 13]: > 128 µg/mL |
| Cl.N=C(N/N=C/c1ccc(C(F)(F)F)cc1)N/N=C/c1ccc(C(F)(F)F)cc1 [NCL035] | greatest activity | – | – | greatest activity | 10.5 | 16 | 5 | MIC (μg/ml) at 24 hours, MRSA 1 [1, 14]: 16 µg/mL; MIC (μg/ml) at 24 hours, MRSA 2 [1, 15]: 16 µg/mL; MIC (μg/ml) at 24 hours, VRE 1 [2, 16]: 8 µg/mL and 4 µg/mL; MIC (μg/ml) at 24 hours, VRE 2 [2, 17]: 4 µg/mL; MIC (μg/ml) at 24 hours, E. coli ([3]; 1st and 2nd replicate rows): >128 µg/mL; MIC (μg/ml) at 24 hours, P. aeruginosa [4, 18]: >128 µg/mL |
| Nc1nc(N/N=C/c2ccc(F)cc2)cc(N/N=C/c2ccc(F)cc2)n1 [NCL220] | greatest activity | – | – | greatest activity | 24 | 16 | 32 | MIC (μg/ml) at 24 hours, MRSA 1 ([1]; MRSA 1, 24 hours): 16 µg/mL (≈ 43.6 µM); MIC (μg/ml) at 24 hours, MRSA 2 ([1]; MRSA 2, 24 hours): 16 µg/mL (≈ 43.6 µM); MIC (μg/ml) at 24 hours, VRE 1 ([2]; VRE 1, 24 hours): 32 µg/mL (≈ 87.1 µM); MIC (μg/ml) at 24 hours, VRE 2 ([2]; VRE 2, 24 hours): 32 µg/mL (≈ 87.1 µM); MIC (μg/ml) at 24 hours, E. coli ([3]; E. coli): >128 µg/mL; MIC (μg/ml) at 24 hours, P. aeruginosa ([4]; P. aeruginosa, 24 hours): >128 µg/mL |
| C/C(=N\NC(=N)N/N=C(\C)c1ccc(C(C)(C)C)cc1)c1ccc(C(C)(C)C)cc1.Cl [NCL219] | greatest activity | 2 | 16 | greatest activity | 9 | – | – | MIC [1, 6]: 2 µg/mL; MIC [1, 7]: 2 µg/mL; MIC [2, 9]: 16 µg/mL; MIC [2, 10]: 16 µg/mL; MIC [3, 12]: > 128 µg/mL; MIC [4, 13]: > 128 µg/mL |
| C/C(=N\NC(=N)N/N=C(\C)c1ccc(C(F)(F)F)cc1)c1ccc(Cl)cc1.Cl [NCL089] | greatest activity | 5 | 0.75 | – | 2.875 | – | – | MIC (μg/ml) at 24 hours, MRSA 1 ([1]; MRSA 1, 24 hours, duplicate lines per compound): 8 µg/mL; MIC [1, 19]: 4 µg/mL; MIC [1, 20]: 4 µg/mL; MIC [2, 21]: 0.5 µg/mL; MIC [2, 22]: 1 µg/mL; MIC (μg/ml) at 24 hours, VRE 2 ([2]; VRE 2, 24 hours, duplicate lines per compound): 1 µg/mL; MIC [3, 23]: > 128 µg/mL; MIC [4, 24]: > 128 µg/mL |
| Cl.N=C(NN=Cc1ccc2[nH]ccc2c1)NN=Cc1ccc2[nH]ccc2c1 [NCL146] | greatest activity | – | – | greatest activity | 14 | 12 | 16 | – |
| COc1cccc(C=NNC(=N)NN=Cc2cccc(OC)c2)c1.Cl [NCL029] | greatest activity | – | – | greatest activity | 32 | 32 | 32 | MIC (μg/ml) at 24 hours, MRSA 1 [1, 14]: 32 µg/mL; MIC (μg/ml) at 24 hours, MRSA 2 [1, 15]: 32 µg/mL; MIC (μg/ml) at 24 hours, VRE 1 [2, 16]: 32 µg/mL; MIC (μg/ml) at 24 hours, VRE 2 [2, 17]: 32 µg/mL; MIC (μg/ml) at 24 hours, E. coli ([3]; 1st and 2nd replicate rows): >128 µg/mL; MIC (μg/ml) at 24 hours, P. aeruginosa [4, 18]: >128 µg/mL |
| C/C(=N\NC(=N)N/N=C/c1ccc(Cl)cc1)c1ccc(C(F)(F)F)cc1.Cl [NCL080] | greatest activity | 5 | 3 | greatest activity | 4 | – | – | MIC (μg/ml) at 24 hours, MRSA 2 ([1]; MRSA 2, 24 hours, duplicate lines per compound): 8 µg/mL; MIC [1, 19]: 4 µg/mL; MIC [1, 20]: 4 µg/mL; MIC [2, 21]: 2 µg/mL; MIC [2, 22]: 4 µg/mL; MIC [3, 23]: > 128 µg/mL; MIC [4, 24]: > 128 µg/mL |
| Cl.N=C(NN=Cc1ccc(Cl)cc1N)NN=Cc1ccc(Cl)cc1N [NCL157, 2,2′-bis[(2-amino-4-chlorophenyl)methylene]carbonimidic Dihydrazide Hydrochloride] | greatest activity | 2 | 2.5 | greatest activity | 2.25 | – | – | – |
| CC(=NNC(=N)NN=C(C)c1ccc(Cl)cc1O)c1ccc(Cl)cc1O.Cl [NCL173] | greatest activity | – | – | greatest activity | 17 | 16 | 18 | – |
| N=C(NN=Cc1ccc(Cl)cc1N)NN=Cc1ccc(Cl)cc1N [NCL169] | greatest activity | – | – | greatest activity | 40 | – | 32 | – |
| CC(O)Nc1cc(Cl)ccc1C=NNC(=N)NN=Cc1ccc(Cl)cc1NC(C)O.Cl (stereo not drawn) [NCL168] | greatest activity | – | – | greatest activity | 40 | – | – | – |
| Cl.N=C(NN=Cc1ccc(F)c(F)c1)NN=Cc1ccc(F)c(F)c1 [NCL123] | greatest activity | – | – | greatest activity | 9.5 | 15 | 4 | – |
| CCCc1ccc(C=NNC(=N)NN=Cc2ccc(CCC)cc2)cc1.Cl [NCL121] | greatest activity | – | – | greatest activity | 30 | 32 | 28 | – |
| CC/C(=N\NC(=N)N/N=C(\CC)c1ccc(Cl)cc1O)c1ccc(Cl)cc1O [NCL158] | greatest activity | 4 (≈ 9.47 µM) | 4 (≈ 9.47 µM) | greatest activity | 4 | – | – | – |
| Cl.N=C(NN=C(CO)c1ccc(Cl)cc1)NN=C(CO)c1ccc(Cl)cc1 [NCL177] | greatest activity | – | – | greatest activity | 7 | 8 | 6 | – |
| CC(C)c1ccc(/C=N/NC(=N)N/N=C/c2ccc(C(C)C)cc2)cc1.Cl [NCL120] | greatest activity | – | – | greatest activity | 6 | 7 | 5 | – |
| Nc1nc(N/N=C/c2ccc(Cl)cc2)cc(N/N=C/c2ccc(Cl)cc2)n1 [NCL179, 4,6-bis(2-((E)-4-chlorobenzylidene)hydrazinyl)pyrimidin-2-amine] | greatest activity | 2 (≈ 5 µM) | 4 (≈ 9.99 µM) | greatest activity | 3 | – | – | – |
| CCC(=NNC(=N)NN=C(CC)c1ccc(Cl)cc1)c1ccc(Cl)cc1.Cl [NCL153] | greatest activity | – | – | greatest activity | 16 | 24 | 8 | – |
| Cl.[H]/N=C(/N)NN=C(CNN)c1ccc(Cl)cc1 [NCL190] | greatest activity | – | – | greatest activity | 28 | 24 | 32 | – |
| C/C(=N\NC(=N)N/N=C(\C)c1ccc(Br)cc1)c1ccc(Br)cc1.Cl [NCL155] | greatest activity | – | – | greatest activity | 10 | 8 | 12 | – |
| Cl.N=C(NN=Cc1ccc(Cl)cc1O)NN=Cc1ccc(Cl)cc1O [NCL174] | greatest activity | – | – | greatest activity | 25 | 32 | 18 | – |
| CC(=NNC(=N)NN=C(C)c1ccccc1)c1ccccc1.Cl [NCL143] | greatest activity | – | – | greatest activity | 12 | 16 | 8 | – |
